Experimental data from patent US20240301494A1, “IDENTIFICATION AND TREATMENT OF PATIENTS WITH EPILEPSY” (GW Research Limited, priority 2020, published 2024).

How the values were obtained:
Format in all cases: in vivo, human
[1] = tested on: patients with treatment-resistant epilepsy (TRE); assay: CBD response (percent change in seizure frequency) in open-label Expanded Access Program; details: for Maintenance seizure frequency, Mean ± SD: per 28 days; for Percent change seizure frequency, Mean ± SD: vs baseline
Description: (§1) All patients (or caregivers) were instructed to keep seizure diaries, which were verified during in-person visits. At each clinic visit, data on concomitant AEDs, CBD maintenance dose (mg/kg/day), seizure frequencies, and adverse events were collected.

[2] = tested on: patients with treatment-resistant epilepsy (TRE); assay: CBD tolerability: adverse events (MedDRA) in open-label Expanded Access Program
Experimental: as §1
Adverse effects were classified according to the Medical Dictionary for Regulatory Activities (MedDRA, V17.1), and those that differed by response status (diarrhoea, sedation, and abnormal liver function tests (LFTs)) were evaluated in the genetic analyses.

[3] = tested on: patients with treatment-resistant epilepsy (TRE); assay: Single-marker association of genetic variants (DMET plus array) with CBD response, logistic regression
Experimental: (§2) Baseline data collection included demographics, seizure frequencies/severity, concomitant AEDs, and laboratory data.
(§3) CLIA-certified genotyping on the Affymetrix Drug Metabolizing Enzymes and Transporters (DMET) plus array was performed through the Coriell Institute for Medical Research (Camden, NJ) in two batches, with nine samples re-genotyped due to low call rates. The DMET plus array interrogates 1,936 markers (1,931 variants and 5 copy number regions) across ˜230 drug-related genes. Affymetrix DMET Console software® (version 1.3) was used to generate genotype profiles. Of the 1,931 variants, 1,328 were removed due to location on the X-chromosome or a minor allele frequency <0.05.
Hardy-Weinberg equilibrium was evaluated, and variants p<0.0001 were further evaluated by race. Variants in linkage disequilibrium (LD) were removed (n=212; r2=0.5), leaving 396 variants in the analyses.
Relationships between variants and CBD response/tolerability were tested under dominant (AA vs Ab+bb) and recessive (AA+Ab vs bb) models using logistic regression in PLINK. Treatment group (adult vs paediatric), race, and sex were included as covariates in all analyses.
(§4) A permutation approach was used to account for multiple testing (number of permutations: 1,000), since other methods (e.g. Bonferroni correction) assume independence between markers and likely be overly conservative.

[4] = tested on: patients with treatment-resistant epilepsy (TRE); assay: Single-marker association of genetic variants (DMET plus array) with CBD-related adverse effects, logistic regression
Experimental: as §2
as §3, with “profiles.” for “profiles. Of the 1,931 variants, 1,328 were removed due to location on the X-chromosome or a minor allele frequency <0.05.”
Hardy-Weinberg equilibrium was evaluated, and variants p<0.0001 were further evaluated by race.
Treatment group (adult vs paediatric), race, and sex were included as covariates in all analyses.
as §4

[5] = tested on: patients with treatment-resistant epilepsy (TRE); assay: Multivariable model of CBD response in treatment-resistant epilepsy
Experimental: Receiver operator curves (ROC) were generated and the area under the curve (AUC) was evaluated to compare clinical, genetic, and combined clinical+genetic models. Epistasis was evaluated in PLINK to identify potential interactions among variants included in the final response model.

In the case of `C=C(C)[C@@H]1CCC(C)=C[C@H]1c1c(O)cc(CCCCC)cc1O` [CBD, cannabidiol], the “Therapeutic response (≥50% reduction), share of patients” value ([1]; 112 genotyped TRE patients) is reported as 56.3%, the “Maintenance seizure frequency, Median” value ([1]; Non-Responders (N = 49)) is reported as 14.73 and the “Percent change seizure frequency, Median” value ([1]; Non-Responders (N = 49)) is reported as −14.3%. The “Maintenance seizure frequency, Mean ± SD” value ([1]; Non-Responders (N = 49)) was 108.52 ± 327.05, the “Percent change seizure frequency, Mean ± SD” value ([1]; Non-Responders (N = 49)) was 5.65 ± 59.13% and the “Maintenance seizure frequency, Median” value ([1]; Overall (N = 112)) was 7.76. For the same molecule, the “Percent change seizure frequency, Median” value ([1]; Overall (N = 112)) was −53.9%, the “Maintenance seizure frequency, Mean ± SD” value ([1]; Overall (N = 112)) was 58.54 ± 222.27 and the “Percent change seizure frequency, Mean ± SD” value ([1]; Overall (N = 112)) was −42.08 ± 58.76%. The “Maintenance seizure frequency, Median” value ([1]; Responders (N = 63)) was 4.50, the “Percent change seizure frequency, Median” value ([1]; Responders (N = 63)) was −82% and the “Maintenance seizure frequency, Mean ± SD” value ([1]; Responders (N = 63)) was 19.65 ± 46.09. The “Percent change seizure frequency, Mean ± SD” value ([1]; Responders (N = 63)) was −79.20 ± 16.58%, the “Therapeutic response (≥50% reduction), number of patients” value ([1]; of 112 patients) was 63 and the “Adverse event Abnormal liver function tests, %” value ([2]; Non-Responders (N = 49)) was “(4.1%)”. For the same molecule, the “Adverse event Decreased appetite, %” value ([2]; Non-Responders (N = 49)) was “(6.1%)”, the “Adverse event Depressed mood, %” value ([2]; Non-Responders (N = 49)) was “(14.3%)” and the “Adverse event Diarrhoea, %” value ([2]; Non-Responders (N = 49)) was “(44.9%)”. For the same molecule, the “Adverse event Nausea/vomiting, %” value ([2]; Non-Responders (N = 49)) was “(10.2%)”, the “Adverse event Sedation, %” value ([2]; Non-Responders (N = 49)) was “(44.9%)” and the “Weight Change: 10-20% Weight loss, %” value ([2]; Non-Responders (N = 49)) was “(24.5%)”. For the same molecule, the “Weight Change: <10% Weight loss, %” value ([2]; Non-Responders (N = 49)) was “(53.1%)”, the “Weight Change: >20% Weight loss, %” value ([2]; Non-Responders (N = 49)) was “(6.1%)” and the “Weight Change: No Change or increase, %” value ([2]; Non-Responders (N = 49)) was “(16.3%)”. The “Adverse event Abnormal liver function tests, %” value ([2]; Overall (N = 112)) was “(10.7%)”, the “Adverse event Decreased appetite, %” value ([2]; Overall (N = 112)) was “(10.7%)” and the “Adverse event Depressed mood, %” value ([2]; Overall (N = 112)) was “(10.7%)”. For the same molecule, the “Adverse event Diarrhoea, %” value ([2]; Overall (N = 112)) was “(58.9%)”, the “Adverse event Nausea/vomiting, %” value ([2]; Overall (N = 112)) was “(12.5%)” and the “Adverse event Sedation, %” value ([2]; Overall (N = 112)) was “(34.8%)”. The “Weight Change: 10-20% Weight loss, %” value ([2]; Overall (N = 112)) was “(20.5%)”, the “Weight Change: <10% Weight loss, %” value ([2]; Overall (N = 112)) was “(51.8%)” and the “Weight Change: >20% Weight loss, %” value ([2]; Overall (N = 112)) was “(8.0%)”. For the same molecule, the “Weight Change: No Change or increase, %” value ([2]; Overall (N = 112)) was “(19.6%)”, the “Adverse event Abnormal liver function tests, %” value ([2]; Responders (N = 63)) was “(15.9%)” and the “Adverse event Decreased appetite, %” value ([2]; Responders (N = 63)) was “(14.3%)”. For the same molecule, the “Adverse event Depressed mood, %” value ([2]; Responders (N = 63)) was “(7.9%)”, the “Adverse event Diarrhoea, %” value ([2]; Responders (N = 63)) was “(69.8%)” and the “Adverse event Nausea/vomiting, %” value ([2]; Responders (N = 63)) was “(14.3%)”. For the same molecule, the “Adverse event Sedation, %” value ([2]; Responders (N = 63)) was “(27.0%)”, the “Weight Change: 10-20% Weight loss, %” value ([2]; Responders (N = 63)) was “(17.5%)” and the “Weight Change: <10% Weight loss, %” value ([2]; Responders (N = 63)) was “(50.8%)”. The “Weight Change: >20% Weight loss, %” value ([2]; Responders (N = 63)) was “(9.5%)”, the “Weight Change: No Change or increase, %” value ([2]; Responders (N = 63)) was “(22.2%)” and the “increased likelihood of response” value ([3]; AOX1 rs6729738, recessive) was 6 fold. The “increased odds of response” value ([3]; CHST11 rs903247) was 4 fold, the “decreased likelihood of response” value ([3]; GSTM5 rs2479390) was 72% and the “decreased likelihood of response” value ([3]; GSTP1 rs1695 (recessive)) was 87%. The “increased likelihood of response” value ([3]; SULT1A2 rs1059491 (recessive)) was 17 fold, the “increased odds of response” value ([3]; UGT2B4 rs1966151) was 4 fold and the “association of variant with CBD-associated sedation” value ([4]; ABCB1 rs1045642) was “decreased sedation”. For the same molecule, the “increased likelihood of abnormal LFTs” value ([4]; APOA2 rs5085, recessive) was 6 fold, the “association of variant with CBD-associated sedation” value ([4]; COMT rs4680 recessive wild-type G alleles) was “decreased sedation” and the “increased likelihood of diarrhoea” value ([4]; CYP2A6 rs28399433) was 10 fold. For the same molecule, the “association of variant with CBD-associated sedation” value ([4]; CYP2C19 rs3758581) was “decreased sedation”, the “increased likelihood of diarrhoea” value ([4]; CYP39A1 rs7761731) was roughly 9 fold and the “increased likelihood of diarrhoea” value ([4]; FMO6 rs2272797) was roughly 5 fold. For the same molecule, the “increased odds of abnormal LFTs” value ([4]; SLC22A2 rs316003, recessive) was roughly 11 fold, the “increased odds of abnormal LFTs” value ([4]; SLC22A5 rs274548, recessive) was roughly 15 fold and the “increased odds of abnormal LFTs” value ([4]; SLC22A11 rs1783811, recessive) was roughly 6 fold. For the same molecule, the “association of variant with CBD-associated sedation” value ([4]; TPMT rs2842934) was “decreased sedation”, the “association of variant with CBD-associated sedation” value ([4]; UGT2A1 rs4148304 missense variant) was “decreased odds of sedation” and the “association of variant with CBD-associated diarrhoea” value ([4]; UGT2A1 rs11249454 intron variant) was “decreased odds of diarrhoea”. For the same molecule, the “OR of CBD response, multivariable model” value ([5]; ABP1 (AOC1) rs12539) was 5.67, the “OR of CBD response, multivariable model” value ([5]; CHST11 rs903247) was 5.03 and the “OR of CBD response, multivariable model” value ([5]; DPYD rs1801265) was 4.50. The “OR of CBD response, multivariable model” value ([5]; FMO2 rs7515157 (recessive)) was 0.06, the “OR of CBD response, multivariable model” value ([5]; GSTM5 rs2479390) was 0.15 and the “OR of CBD response, multivariable model” value ([5]; GSTP1 rs1695 (recessive)) was 0.03. The “OR of CBD response, multivariable model” value ([5]; SLC7A7 rs1061040) was 5.04, the “OR of CBD response, multivariable model” value ([5]; UGT2B4 rs1966151) was 5.02 and the “OR of CBD response, multivariable model” value ([5]; predictor: CBD dose (mg/kg/day)) was 1.07.
